Molecular target: T1, PD brain-derived a-syn aggregates (Homo sapiens, UniProt P37840)
T1 construct: from tissue; host or cells: human PD donor brain, sarkosyl-insoluble 100,000 x g pellet
Assay: Micro-radiobinding competition assay against Example-1 [^3H-1] (Table 8)
Format: binding
Conditions: for Competition at 100 nM (%): 100 nM non-radiolabelled example compound vs Example-1 [^3H-1] ligand; for Competition at 100 nM (%) / Competition at 1 μM (%): human PD brain-derived a-syn aggregates; for Competition at 1 μM (%): 1 μM non-radiolabelled example compound vs Example-1 [^3H-1] ligand
Description: PD brain-derived a-syn aggregates were spotted onto microarray slides. The slides were incubated with the Example-1 [^3H-1] at 6 nM or 20 nM and the example compounds (non-radiolabelled) at 1 μM and 100 nM. In some cases, the non-radiolabelled example compounds were further assessed for a range of different concentrations, varying from 0.05 nM to 2 μM. After incubation, slides were washed and scanned by a real-time autoradiography system (BeaQuant, ai4R). Quantification of the signal was performed by using the Beamage image analysis software (ai4R). […] All measurements were performed with at least two technical replicates. For compounds tested in more than one experiment, the mean of the replicates or K; values in independent experiments is reported.
Results: Example compounds were assessed for their potency to compete with the binding of Example-1 [^3H-1] ligand to PD patient brain-derived a-syn aggregates. Results of the micro-radiobinding competition assay for the example compounds tested are shown in Table 8 as: % competition at 1 μM and 100 nM.

| Compound | Competition at 100 nM (%) | Competition at 1 μM (%) | Ki (mean of Ki values in independent experiments using PD brain-derived homogenates from two different donors) [µM] |
| --- | --- | --- | --- |
| Cc1ccccc1N1Cc2nn(-c3ccc(N4CC[C@H](F)C4)nc3)cc2C1=O [Example 32] | 16 | 25 | – |
| Cn1cc(N2Cc3nn(-c4ccc(N5CCC[C@@H](F)C5)nc4)cc3C2=O)cn1 [Example 120] | 45 | 83 | – |
| N#Cc1cc(N2Cc3nn(-c4ccc(N5CCCC5)nc4)cc3C2=O)ccc1F [Example 46] | 61 | – | – |
| O=C1c2cn(-c3ccc(N4CC[C@H](F)C4)nc3)nc2CN1c1cncs1 [Example 128] | 55 | 85 | – |
| O=C1c2cn(-c3ccc(N4CCCC4)nc3)nc2CN1c1cccnc1F [Example 39] | 43 | 66 | – |
| O=C1c2cn(-c3ccc(NC4CC(F)C4)nc3)nc2CN1c1ccncc1 (centres unmarked) [Example 90] | 18 | 51 | – |
| O=C1c2cn(-c3ccc(N4CC[C@H](F)C4)nc3)nc2CN1c1ccccc1 [Example 20] | 48 | 90 | – |
| COc1ccc(-n2cc3c(n2)CN(c2cccc(F)n2)C3=O)cn1 [Example 159] | 46 | 67 | – |
| O=C1c2cn(-c3ccc(N4CC[C@H](F)C4)nc3)nc2CN1c1ccns1 [Example 127] | 71 | 86 | – |
| N#Cc1ccc(N2Cc3nn(-c4ccc(N5CC[C@@H](F)C5)nc4)cc3C2=O)cc1 [Example 56] | 93 | – | – |
| O=C1c2cn(-c3ccc(N4CCC[C@H](F)C4)nc3)nc2CN1c1cccnc1 [Example 43] | 47 | 88 | – |
| O=C1c2cn(-c3ccc(N4CCCC4)nc3)nc2CN1c1cccc(F)n1 [Example 140] | 67 | – | – |
| O=C1c2cn(-c3ccc(N4CC[C@@H](F)C4)nc3)nc2CN1c1ccccc1O [Example 175] | 32 | 65 | – |
| N#Cc1cncc(N2Cc3nn(-c4ccc(N5CC[C@@H](F)C5)nc4)cc3C2=O)c1 [Example 109] | 67 | – | – |
| O=C1c2cn(-c3ccc(N4CCCC4)nc3)nc2CN1c1cc(F)ccn1 [Example 100] | 78 | – | – |
| N#Cc1cccc(N2Cc3nn(-c4ccc(N5CC[C@@H](F)C5)nc4)cc3C2=O)c1 [Example 67] | 71 | – | – |
| Cc1c2c(nn1-c1ccc(N3CC[C@@H](F)C3)nc1)CN(c1cccnc1)C2=O [Example 52] | 26 | 29 | – |
| O=C1c2cn(-c3ccc(N4CCOCC4)nc3)nc2CN1c1nccnc1F [Example 45] | 78 | 92 | 0.052 |
| Cl.O=C1c2cn(-c3ccc(N4CCCC4)nc3)nc2CN1c1ccc(F)nc1 [Example 49] | 48 | 84 | – |
| N#Cc1ccc(N2Cc3nn(-c4ccc(N5CCCC5)nc4)cc3C2=O)cc1F [Example 55] | 11 | 38 | – |
| Cc1c2c(nn1-c1ccc(N3CC[C@@H](F)C3)nc1)CN(c1cnn(C)c1)C2=O [Example 96] | 24 | 39 | – |
| COc1ccc(-n2cc3c(n2)CN(c2cccnc2)C3=O)cn1 [Example 130] | 74 | 85 | – |
| Cc1c2c(nn1-c1ccc(N3CC[C@H](F)C3)nc1)CN(c1ccccn1)C2=O [Example 73] | 33 | 66 | – |
| CC(C)n1cc(N2Cc3nn(-c4ccc(N5CC[C@@H](F)C5)nc4)cc3C2=O)cn1 [Example 117] | 17 | 67 | – |
| N#Cc1cc(N2Cc3nn(-c4ccc(N5CC[C@@H](F)C5)nc4)cc3C2=O)ccc1N [Example 23] | – | 81 | – |
| Nc1cc(N2Cc3nn(-c4ccc(N5CCCC5)nc4)cc3C2=O)ccc1F [Example 44] | 90 | – | – |
| N#Cc1cc(N2Cc3nn(-c4ccc(N5CC[C@@H](F)C5)nc4)cc3C2=O)ccn1 [Example 114] | 92 | 99 | – |
| CC(C)Oc1ccc(-n2cc3c(n2)CN(c2cccc(F)n2)C3=O)cn1 [Example 160] | 51 | 73 | – |
| O=C1c2cn(-c3ccc(N4CC[C@H](F)C4)nc3)nc2CN1c1cnsc1 [Example 132] | 63 | 93 | – |

Results, then the molecule that gave them:

| Competition at 100 nM (%) | Competition at 1 μM (%) | Ki (mean of Ki values in independent experiments using PD brain-derived homogenates from two different donors) [µM] | Compound |
| --- | --- | --- | --- |
| 37 | – | – | COc1ccccc1N1Cc2nn(-c3ccc(N4CC[C@H](F)C4)nc3)cc2C1=O [Example 37] |
| 91 | – | – | N#Cc1ccc(N2Cc3nn(-c4ccc(N5CC[C@H](F)C5)nc4)cc3C2=O)cn1 [Example 29] |
| 32 | 58 | – | Cc1cnccc1N1Cc2nn(-c3ccc(N4CC[C@H](F)C4)nc3)cc2C1=O [Example 123] |
| 74 | – | – | N#Cc1cccc(N2Cc3nn(-c4ccc(N5CC[C@@H](F)C5)nc4)cc3C2=O)n1 [Example 79] |
| 58 | 73 | – | Cc1cccc(N2Cc3nn(-c4ccc(N5CC[C@@H](F)C5)nc4)cc3C2=O)n1 [Example 75] |
| 61 | 94 | – | Cn1ccc(N2Cc3nn(-c4ccc(N5CC[C@H](F)C5)nc4)cc3C2=O)n1 [Example 118] |
| 59 | 68 | – | Cc1cc(N2Cc3nn(-c4ccc(N5CC[C@@H](F)C5)nc4)cc3C2=O)ccn1 [Example 102] |
| 59 | – | – | Cn1cnc(N2Cc3nn(-c4ccc(N5CC[C@@H](F)C5)nc4)cc3C2=O)c1 [Example 133] |
| 4 | 31 | – | Cc1ncccc1N1Cc2nn(-c3ccc(N4CC[C@H](F)C4)nc3)cc2C1=O [Example 13] |
| 92 | 100 | – | COc1cc(N2Cc3nn(-c4ccc(N5CC[C@@H](F)C5)nc4)cc3C2=O)ccn1 [Example 107] |
| 44 | 87 | – | O=C1c2cn(-c3ccc(N4CC[C@@H](F)C4)nc3)nc2CN1c1cccc(O)n1 [Example 164] |
| 12 | 54 | – | O=C1c2cn(-c3ccc(N4CC[C@H](F)C4)nc3)nc2CN1c1ccncc1O [Example 173] |
| 75 | – | – | N#Cc1ccc(N2Cc3nn(-c4ccc(N5CC[C@@H](F)C5)nc4)cc3C2=O)nc1 [Example 33] |
| 92 | 110 | – | O=C1c2cn(-c3ccc(N4CC[C@@H](F)C4)nc3)nc2CN1c1ccc(O)cn1 [Example 162] |
| 80 | 89 | – | COc1cccc(N2Cc3nn(-c4ccc(N5CC[C@@H](F)C5)nc4)cc3C2=O)c1 [Example 34] |
| 86 | – | – | N#Cc1ccc(N2Cc3nn(-c4ccc(N5CC[C@H](F)C5)nc4)cc3C2=O)nc1 [Example 31] |
| 85 | 98 | – | COc1ccc(N2Cc3nn(-c4ccc(N5CC[C@@H](F)C5)nc4)cc3C2=O)nc1 [Example 58] |
| 60 | – | – | COc1cccc(N2Cc3nn(-c4ccc(N5CC[C@H](F)C5)nc4)cc3C2=O)n1 [Example 78] |

— patent US12552800B2, “Compounds for diagnosis” (AC IMMUNE SA, priority 2020, dated 2026)
